Assay results reported in patent US20150344444A1, “BET-PROTEIN-INHIBITING DIHYDROXYQUINOXALINONES” (BAYER PHARMA AKTIENGESELLSCHAFT, priority 2012, published 2015).

Experiments:
B16F10 cells = test: B16F10 cell proliferation assay (alamarBlue); assay type: cell-based; settings: B16-F10; inhibition of cell proliferation, 96 hours, mouse melanoma cell line
Protocol: (§1) In accordance with the invention, the ability of the substances to inhibit cell proliferation was determined Cell viability was determined by means of the alamarBlue® reagent (Invitrogen) in a Victor X3 Multilabel Reader (Perkin Elmer). The excitation wavelength was 530 nm and the emission wavelength […].
The B16F10 cells (ATCC, CRL-6475) were sown at a concentration of 300-500 cells/well in 100 μl of growth medium (DMEM with phenol red, 10% FCS) on 96-well microtitre plates.
(§2) After overnight incubation at 37° C., the fluorescence values were determined (CI values). Then the plates were treated with various substance dilutions (1E-5 M, 3E-6 M, 1E-6 M, 3E-7 M, 1E-7 M, 3E-8 M, 1E-8 M) and incubated at 37° C. over 96 hours (MOLM-13, B16F10 cells) or 120 hours (MOLP-8 cells). Subsequently, the fluorescence values were determined (CO values). For the data analysis, the CI values were subtracted from the CO values and the results were compared between cells which had been treated with various dilutions of the substance or only with buffer solution. The IC50 values (substance concentration needed for 50% inhibition of cell proliferation) were calculated therefrom.
B16F10 mouse melanoma cell line

MOLM-13 cells = test: MOLM-13 cell proliferation assay (alamarBlue); assay type: cell-based; settings: inhibition of cell proliferation, 96 hours, human AML cell line
Protocol: as §1
The MOLM-13 cells (DSMZ, ACC 554) were sown at a concentration of 4000 cells/well in 100 μl of growth medium (RPMI1640, 10% FCS) on 96-well microtitre plates.
as §2
MOLM-13 human AML (acute myeloid leukaemia) cell line

MOLP-8 cells = test: MOLP-8 cell proliferation assay (alamarBlue); assay type: cell-based; settings: inhibition of cell proliferation, 120 hours, human multiple myeloma cell line
Protocol: as §1
The MOLP-8 cells (DSMZ, ACC 569) were sown at a concentration of 4000 cells/well in 100 μl of growth medium (RPMI1640, 20% FCS) on 96-well microtitre plates.
as §2
MOLP-8 human multiple myeloma cell line

[1] = target: T1, BRD4 Bromo Domain 1 [BRD4(1)] (Homo sapiens, UniProt O60885); test: BRD4(1)/acetylated peptide H4 binding assay (TR-FRET); settings: inhibition of interaction between His6-tagged BRD4(1) (amino acids 67-152) and acetylated histone H4 peptide
T1 construct: N-terminally His6-tagged BRD4(1) (amino acids 67-152); made in house; host or cells: E. coli
Excerpt: Protein-Protein Interaction Assay: BRD4/Acetylated Peptide H4 Binding Assay
1. Assay Description for BRD4 Bromo Domain 1 [BRD4(1)]
To assess the BRD4(1) binding strength of the substances described in this application, the ability thereof to inhibit the interaction between BRD4(1) and acetylated histone H4 in a dose-dependent manner was quantified.
For this purpose, a time-resolved fluorescence resonance energy transfer (TR-FRET) assay was used, which measures the binding between N-terminally His6-tagged BRD4(1) (amino acids 67-152) and a synthetic acetylated histone H4 (Ac-H4) peptide with sequence GRGK(Ac)GGK(Ac)GLGK(Ac)GGAK(Ac)RHGSGSK-biotin. The recombinant BRD4(1) protein produced in house according to Filippakopoulos et al., Cell, 2012, 149:214-231 was expressed in E. coli and purified by means of (Ni-NTA) affinity and (Sephadex G-75) size exclusion chromatography. The Ac-H4 peptide can be purchased, for example, from Biosyntan (Berlin, Germany).
In the assay, typically 11 different concentrations of each substance (0.1 nM, 0.33 nM, 1.1 nM, 3.8 nM, 13 nM, 44 nM, 0.15 μM, 0.51 μM, 1.7 μM, 5.9 μM and 20 μM) were analysed as duplicates on the same microtitre plate. For this purpose, 100-fold concentrated solutions in DMSO were prepared by serial dilutions (1:3.4) of a 2 mM stock solution into a clear, 384-well microtitre plate (Greiner Bio-One, Frickenhausen, Germany). From this, 50 nl were transferred into a black test plate (Greiner Bio-One, Frickenhausen, Germany). The test was started by the addition of 2 μl of a 2.5-fold concentrated BRD4(1) solution (final concentration typically 10 nM in the 5 μl of reaction volume) in aqueous assay buffer [50 mM HEPES pH 7.5, 50 mM sodium chloride (NaCl), 0.25 mM CHAPS and 0.05% serum albumin (BSA)] to the substances in the test plate. This was followed by a 10-minute incubation step at 22° C. for the pre-equilibration of putative complexes between BRD4(1) and the substances.
The mixture was then incubated in the dark at 22° C. for one hour and then at 4° C. for at least 3 hours and for no longer than overnight. The formation of BRD4(1)/Ac-H4 complexes was determined by the measurement of the resonance energy transfer from the streptavidin-Eu cryptate to the anti-6His-XL665 antibody present in the reaction. For this purpose, the fluorescence emission was measured at 620 nm and 665 nm after excitation at 330-350 nm in a TR-FRET measuring instrument, for example a Rubystar or Pherastar (both from BMG Lab Technologies, Offenburg, Germany) or a Viewlux (Perkin-Elmer). The ratio of the emissions at 665 nm and at 622 nm was taken as an indicator of the amount of BRD4(1)/Ac-H4 complexes formed.
The data (ratios) obtained were normalized, with 0% inhibition corresponding to the mean from the measurements for a set of controls (typically 32 data points) in which all the reagents were present. In these, in place of test substances, 50 nl of DMSO (100%) were used Inhibition of 100% corresponded to the mean from the measurements for a set of controls (typically 32 data points) in which all the reagents except BRD4(1) were present. The IC50 was determined by regression analysis based on a 4-parameter equation (minimum, maximum, IC50, Hill; Y=max+(min−max)/(1+(X/IC50)Hill).

IC50 (B16F10 cells) [nM]	IC50 (MOLM-13 cells) [nM]	IC50 [1] [nM]	SMILES	IC50 (MOLP-8 cells) [nM]
327	289	63	C[C@@H]1C(=O)N(C)c2ccc(Nc3ccc(S(=O)(=O)N(C)C)cc3)cc2N1C1CCCC1 [Example 3, 4-{[(3R)-4-cyclopentyl-1,3-dimethyl-2-oxo-1,2,3,4-tetrahydroquinoxalin-6-yl]amino}-N,N-dimethylbenzenesulphonamide]	301
365	366	249	C[C@@H]1C(=O)N(C)c2ccc(Nc3ccc(C(=O)NCC4COC4)cc3)cc2N1Cc1ccccc1 [Example 9, 4-{[(3R)-4-benzyl-1,3-dimethyl-2-oxo-1,2,3,4-tetrahydroquinoxalin-6-yl]amino}-N-(oxetan-3-ylmethyl)benzamide]	139
–	527	308	C[C@@H]1C(=O)N(C)c2ccc(Nc3ccc(C(=O)NC4CC4)cc3)cc2N1Cc1ccccc1 [Example 10, 4-{[(3R)-4-benzyl-1,3-dimethyl-2-oxo-1,2,3,4-tetrahydroquinoxalin-6-yl]amino}-N-cyclopropylbenzamide]	260
768	364	239	C[C@@H]1C(=O)N(C)c2ccc(Nc3ccc(C(=O)NC4CCN(C)CC4)cc3)cc2N1Cc1ccccc1 [Example 11, 4-{[(3R)-4-benzyl-1,3-dimethyl-2-oxo-1,2,3,4-tetrahydroquinoxalin-6-yl]amino}-N-(1-methylpiperidin-4-yl)benzamide]	102
179	300	156	C[C@@H]1C(=O)N(C)c2ccc(Nc3ccc(C(=O)N4CCOCC4)cc3)cc2N1Cc1ccccc1 [Example 12, (3R)-4-benzyl-1,3-dimethyl-6-{[4-(morpholin-4-ylcarbonyl)phenyl]amino}-3,4-dihydroquinoxalin-2(1H)-one]	98
136	223	168	C[C@@H]1C(=O)N(C)c2ccc(Nc3ccc(S(=O)(=O)N4CCOCC4)cc3)cc2N1Cc1ccccc1 [Example 13, (3R)-4-benzyl-1,3-dimethyl-6-{[4-(morpholin-4-ylsulphonyl)phenyl]amino}-3,4-dihydroquinoxalin-2(1H)-one]	98
178	233	283	C[C@@H]1C(=O)N(C)c2ccc(Nc3ccc(S(=O)(=O)N(C)C)cc3)cc2N1Cc1ccccc1 [Example 14, 4-{[(3R)-4-benzyl-1,3-dimethyl-2-oxo-1,2,3,4-tetrahydroquinoxalin-6-yl]amino}-N,N-dimethylbenzenesulphonamide]	115
224	90	128	C[C@@H]1C(=O)N(C)c2ccc(Nc3ccc(S(=O)(=O)N4CCN(C)CC4)cc3)cc2N1Cc1ccccc1 [Example 15, (3R)-4-benzyl-1,3-dimethyl-6-({4-[(4-methylpiperazin-1-yl)sulphonyl]phenyl}amino)-3,4-dihydroquinoxalin-2(1H)-one]	109

The next lines start with the compound.

SMILES	IC50 (B16F10 cells) [nM]	IC50 (MOLM-13 cells) [nM]	IC50 [1] [nM]	IC50 (MOLP-8 cells) [nM]
C[C@@H]1C(=O)N(C)c2ccc(Nc3ccc(C(=O)NC4CCN(C)CC4)cc3)cc2N1Cc1c(F)cccc1F (stereo in doubt) [Example 39, 4-{[4-(2,6-difluorobenzyl)-1,3-dimethyl-2-oxo-1,2,3,4-tetrahydroquinoxalin-6-yl]amino}-N-(1-methylpiperidin-4-yl)benzamide]	3280	2850	1040	1740
C[C@@H]1C(=O)N(C)c2ccc(Nc3ccc(C(=O)NC4CCC(N5CCN(CC6CC6)CC5)CC4)cc3)cc2N1Cc1c(F)cccc1F (stereo in doubt) [Example 40, N-{4-[4-(cyclopropylmethyl)piperazin-1-yl]cyclohexyl}-4-{[4-(2,6-difluorobenzyl)-1,3-dimethyl-2-oxo-1,2,3,4-tetrahydroquinoxalin-6-yl]amino}benzamide]	4980	> 10000	1280	6620
C[C@@H]1C(=O)N(C)c2ccc(Nc3ccc(C(=O)NC4CCCC4)cc3)cc2N1C1CCCC1 [Example 1, N-cyclopentyl-4-{[(3R)-4-cyclopentyl-1,3-dimethyl-2-oxo-1,2,3,4-tetrahydroquinoxalin-6-yl]amino}benzamide]	1500	1160	173	1470
C[C@@H]1C(=O)N(C)c2ccc(Nc3ccc(C(=O)NC4CC4)cc3)cc2N1C1CCCC1 [Example 2, 4-{[(3R)-4-cyclopentyl-1,3-dimethyl-2-oxo-1,2,3,4-tetrahydroquinoxalin-6-yl]amino}-N-cyclopropylbenzamide]	1690	811	144	727
C[C@@H]1C(=O)N(C)c2ccc(Nc3ccc(C(=O)N4CCOCC4)cc3)cc2N1C1CCCC1 [Example 6, (3R)-4-cyclopentyl-1,3-dimethyl-6-{[4-(morpholin-4-ylcarbonyl)phenyl]amino}-3,4-dihydroquinoxalin-2(1H)-one]	371	698	74	271
CC(C)NC(=O)c1ccc(Nc2ccc3c(c2)N(C2CCCC2)[C@H](C)C(=O)N3C)cc1 [Example 7, 4-{[(3R)-4-cyclopentyl-1,3-dimethyl-2-oxo-1,2,3,4-tetrahydroquinoxalin-6-yl]amino}-N-isopropylbenzamide]	1020	1440	167	637
C[C@@H]1C(=O)N(C)c2ccc(Nc3ccc(C(=O)N(C)C)cc3)cc2N1C1CCCC1 [Example 8, 4-{[(3R)-4-cyclopentyl-1,3-dimethyl-2-oxo-1,2,3,4-tetrahydroquinoxalin-6-yl]amino}-N,N-dimethylbenzamide]	584	627	98	521
C[C@@H]1C(=O)N(C)c2ccc(Nc3ccc(C(=O)NCC4COC4)cc3)cc2N1C1CCCCCC1 [Example 25, 4-{[(3R)-4-cycloheptyl-1,3-dimethyl-2-oxo-1,2,3,4-tetrahydroquinoxalin-6-yl]amino}-N-(oxetan-3-ylmethyl)benzamide]	–	1360	454	1360
